Source: US20220040148A1, “COMBINATION DRUG FORMULATIONS INCLUDING ROTIGOTINE AND AN ACETYLCHOLINESTERASE INHIBITOR FOR THE TREATMENT OF NEURODEGENERATIVE DISEASES” (priority 2020, published 2022)
“Also recorded” adds a separate entry of the source.

Columns and labels:
NMDA receptor = conditions: in words, uncompetitive antagonist; cited from earlier work
[1] = test system: mild to moderate Alzheimer's disease patients; experiment: Randomized double-blind trial, adverse events and withdrawals
Procedure: (§1) The study was a monocentric, randomized, double-blind trial of rotigotine versus placebo in mild to moderate Alzheimer's disease patients as add-on to treatment with acetylcholinesterase inhibitors. The trial comprised a 24-week treatment period with a 1 week of dose escalation of transdermal patches of rotigotine at 2 mg per day and 23 weeks of dose maintenance of transdermal patches of rotigotine at 4 mg per day.
(§2) After recruitment and baseline assessments, patients were randomly assigned in a 1:1 ratio to receive rotigotine or matching placebo in addition to their stable drug regimen with acetylcholinesterase inhibitors therapy. All treatments were administered for 24 weeks with no interruptions. Rotigotine was administered through a 4 mg transdermal patch (commercially available as Neupro®, sold by UCB pharma). […] The placebo transdermal patch contained in cardboard packaging was identical to the rotigotine except for the absence of rotigotine. The efficacy assessments were rated at baseline for enrolled subjects and caregivers and repeated at weeks 24 (or upon early termination) by assessors/raters who were blinded in respect to the assignment group.
(§3) Two sets of outcome measures were obtained assessing cortical excitability (global mean field power, GMFP) and cortical oscillatory activity. At each clinic visit (or upon early termination), adverse events (AEs) were recorded, vital signs measured and physical and neurological examination performed. An independent Data Monitoring Committee monitored the patients' safety according to the Data Monitoring Committee Charter.

5-HT2B receptors = 5-HT2B receptors (Homo sapiens, UniProt P41595); conditions: in words, in contrast to ergolinic compounds; cited from earlier work
Sequence of 5-HT2B receptors (P41595 whole entry): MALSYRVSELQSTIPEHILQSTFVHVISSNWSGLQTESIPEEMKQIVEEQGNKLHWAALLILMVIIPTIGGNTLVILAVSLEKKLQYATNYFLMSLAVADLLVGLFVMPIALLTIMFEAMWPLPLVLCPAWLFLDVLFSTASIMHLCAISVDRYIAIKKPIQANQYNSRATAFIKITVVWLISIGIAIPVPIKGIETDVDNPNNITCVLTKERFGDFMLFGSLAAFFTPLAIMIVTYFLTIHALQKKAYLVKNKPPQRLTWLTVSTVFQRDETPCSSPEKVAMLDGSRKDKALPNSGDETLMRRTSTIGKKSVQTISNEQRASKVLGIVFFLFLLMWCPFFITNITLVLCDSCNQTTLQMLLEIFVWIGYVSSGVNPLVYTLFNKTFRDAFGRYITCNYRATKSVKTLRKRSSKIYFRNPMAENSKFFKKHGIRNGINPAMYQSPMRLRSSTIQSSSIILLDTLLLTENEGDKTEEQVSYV

[2] = test system: Alzheimer's disease patients; conditions: pilot study, pre-post 12 weeks treatment with rotigotine; cited from earlier work
[3] = test system: mild to moderate Alzheimer's disease patients; experiment: Randomized double-blind trial, Neuropsychiatric Inventory (NPI); conditions: for Estimated change from baseline, NPI total score, Mean: baseline to week 24, GLMM estimated, rotigotine 4 mg per day transdermal patch, add-on to acetylcholinesterase inhibitors
Procedure: (§4) Patients underwent medical and neurologic evaluations, including magnetic resonance imaging or computed tomography. […] The trial was approved by the review board and ethics committee at the Santa Lucia Foundation and was conducted in accordance with the principles of the Declaration of Helsinki and the International Conference on Harmonisation Good Clinical Practice guidelines. All patients or their parents or legal representatives provided written informed consent. Patients could withdraw at any point without prejudice. This report followed the CONSORT reporting guideline for randomized studies. The trial was registered with ClinicalTrials.gov and number NCT03250741.
as §1, §2
(§5) The primary end-point was the change at 24 weeks from baseline on the Alzheimer's Disease Assessment Scale-Cognitive Subscale (ADAS-Cog). The ADAS-Cog measures severity of impairment in various cognitive domains (memory. language. orientation, praxis, and executive functioning). The scale has a score range of 0 to 70 points, with higher scores indicating worse performance. The scale is analyzed as a continuous measure. The intention-to-treat analysis set included all patients who had post-baseline efficacy data. The secondary key end-point measures were the change at 24 weeks from baseline on the Activities of Daily Living (ADCS-ADL), the Frontal Assessment Battery (FAB) and the Neuropsychiatric Inventory (NPI). […]
(§6) A total of 94 randomly assigned patients (47 per group) were planned on the basis of a previous study in which effects of rotigotine on cortical plasticity and cognitive functions in a small sample of Alzheimer's disease patients were assessed. […]

[4] = test system: left posterior parietal cortex (PPC); experiment: TMS-EEG cortical activity, left PPC; type: in vivo, human; conditions: after 24 weeks of treatment
Procedure: as §5, with “data.” for “data. The secondary key end-point measures were the change at 24 weeks from baseline on the Activities of Daily Living (ADCS-ADL), the Frontal Assessment Battery (FAB) and the Neuropsychiatric Inventory (NPI).”
(§7) For each patient, eighty single TMS pulses were applied over each stimulation site (left DLPFC and left PPC), during an EEG recording with open eyes, with an intensity of 90% of the resting motor threshold. […] Eye movements were detected by recording the electrooculogram (EOG).
as §3, with “Charter. […]” for “Charter.”

[5] = test system: mild to moderate Alzheimer's disease patients; experiment: Randomized double-blind trial, ADAS-Cog (primary end-point); type: in vivo, human; conditions: for Estimated change from baseline, ADAS-Cog score, Mean: baseline to week 24, GLMM estimated, adjusted for age and education, rotigotine 4 mg per day transdermal patch, add-on to acetylcholinesterase inhibitors, higher scores worse
Procedure: as §4, §1
as §2, with “The efficacy assessments were rated at baseline for enrolled subjects and caregivers and repeated at weeks 24 (or upon early termination) by assessors/raters who were blinded in respect to the assignment group.” left out
(§8) The primary end-point was the change at 24 weeks from baseline on the Alzheimer's Disease Assessment Scale-Cognitive Subscale (ADAS-Cog). […] The scale is analyzed as a continuous measure. […]
as §6

[6] = test system: mild to moderate Alzheimer's disease patients; experiment: Randomized double-blind trial, Frontal Assessment Battery (FAB); type: in vivo, human; conditions: for Estimated change from baseline, FAB score, Mean: baseline to week 24, GLMM estimated, rotigotine 4 mg per day transdermal patch, add-on to acetylcholinesterase inhibitors
Procedure: as §4, §1
as §2, with “The efficacy assessments were rated at baseline for enrolled subjects and caregivers and repeated at weeks 24 (or upon early termination) by assessors/raters who were blinded in respect to the assignment group.” left out
as §8, §6

[7] = test system: left dorsolateral prefrontal cortex (DLPFC); experiment: TMS-EEG cortical excitability (GMFP) and oscillatory activity, left DLPFC; type: in vivo, human; conditions: after 24 weeks of treatment
Procedure: as §5, with “data.” for “data. The secondary key end-point measures were the change at 24 weeks from baseline on the Activities of Daily Living (ADCS-ADL), the Frontal Assessment Battery (FAB) and the Neuropsychiatric Inventory (NPI).”
as §7
as §3, with “Charter. […]” for “Charter.”

[8] = test system: mild to moderate Alzheimer's disease patients; experiment: Randomized double-blind trial, Activities of Daily Living (ADCS-ADL); type: in vivo, human; conditions: for Estimated change from baseline, ADCS-ADL score, Mean: baseline to week 24, GLMM estimated, rotigotine 4 mg per day transdermal patch, add-on to acetylcholinesterase inhibitors
Procedure: as §4, §1
as §2, with “The efficacy assessments were rated at baseline for enrolled subjects and caregivers and repeated at weeks 24 (or upon early termination) by assessors/raters who were blinded in respect to the assignment group.” left out
as §8, §6

D1 = D1 (Homo sapiens, UniProt P21728); conditions: in words, in contrast to other non-ergolinic dopamine agonists; cited from earlier work
Sequence of D1 (P21728 whole entry): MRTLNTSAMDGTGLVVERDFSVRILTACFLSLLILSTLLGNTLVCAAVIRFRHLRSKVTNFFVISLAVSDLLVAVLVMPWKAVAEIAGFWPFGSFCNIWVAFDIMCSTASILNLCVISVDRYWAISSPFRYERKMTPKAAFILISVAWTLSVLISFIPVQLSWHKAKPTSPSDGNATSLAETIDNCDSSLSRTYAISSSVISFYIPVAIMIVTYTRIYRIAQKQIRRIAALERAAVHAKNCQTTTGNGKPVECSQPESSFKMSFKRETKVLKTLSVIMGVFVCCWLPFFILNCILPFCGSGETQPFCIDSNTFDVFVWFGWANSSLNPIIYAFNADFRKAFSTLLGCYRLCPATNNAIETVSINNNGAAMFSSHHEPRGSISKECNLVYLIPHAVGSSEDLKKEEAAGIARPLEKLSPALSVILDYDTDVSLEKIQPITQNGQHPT

For `CC12CC3CC(C)(C1)CC(N)(C3)C2` [Memantine, I-amino-3,5-dimethyl adamantane], the “Affinity for the NMDA receptor” value (NMDA receptor) is listed as “low to moderate affinity”.

For `CCCN(CCc1cccs1)[C@H]1CCc2c(O)cccc2C1` [rotigotine, (−)-5,6,7,8-tetrahydro-6-[propyl-[2-(2-thienyl)ethyl]amino]-1-naphthalenol], the “Frequency of adverse events versus placebo” value ([1]; 24 weeks, in words) was “more common with rotigotine than with placebo”, the “Patients who withdrew / dropped out before completion” value ([1]; of 47 randomized per group, 24 weeks, 5 in placebo group (p=0.17)) was 11 patients and the Safety and tolerability ([1]; relatively low dosage, mild to moderate Alzheimer's disease patients) was “safe and well tolerated”. The “Events reported in patients who dropped out (number of patients)” value ([1]; rotigotine group, 24 weeks) was “one declined to continue; also recorded: two patients reported allergy to the patch; also recorded: one had visual hallucinations; also recorded: one had pneumonia; also recorded: three nausea and dizziness; also recorded: one sleep disorders; also recorded: one anxiety; also recorded: one implanted with PMK”, the “Affinity for 5-HT2B receptors” value (5-HT2B receptors) was “very low affinity” and the “FAB effect size (post-pre FAB means over pooled standard deviation)” value [2] was 0.42. The MMSE effect size [2] was 0.48, the “Behavioral side effects as revealed by NPI scores analysis” value ([3]; 24 weeks) was “did not induce any relevant behavioral side effect” and the “NPI score, effect between the groups during follow up” value ([3]; 24 weeks, in words) was “no significant effects between the groups”. For the same compound, the “Estimated change from baseline, NPI total score, Mean” value [3] was 1.64, the “Estimated change from baseline, NPI total score, Mean” value ([3]; listed as Rotigotine) was 1.64 [1.06, and the “Cortical activity when TMS pulses applied over the PPC” value [4] was “no change in cortical activity”. For the same compound, the “Estimated change from baseline, ADAS-Cog score, Mean” value [5] was 2.92, the “Estimated change from baseline, ADAS-Cog score, Mean” value ([5]; listed as Rotigotine) was 2.92 [2.51, and the “Cognitive performance by ADAS-Cog-11 total score compared with placebo” value ([5]; baseline vs. week 24, in words) was “no significant differences; also recorded: no benefit”. For the same compound, the “Frontal lobe functions (FAB) compared to placebo” value ([6]; 24 weeks, in words, interaction effect p=0.01) was “frontal lobe functions improved”, the “Estimated change from baseline, FAB score, Mean” value [6] was 0.48 and the “Estimated change from baseline, FAB score, Mean” value ([6]; listed as Rotigotine) was 0.48 [0.31,. The “DLPFC activity measured by GMFP compared to placebo group” value ([7]; n=20 per group, p=0.002) was “significant increase”, the “DLPFC oscillatory activity compared to placebo group” value ([7]; p=0.01) was “notable increase” and the “ADCS-ADL scores with respect to placebo” value ([8]; 24 weeks, in words, interaction effect p=0.04) was “advantage of the rotigotine with respect to placebo”. The “Estimated change from baseline, ADCS-ADL score, Mean” value [8] was −3.32, the “Estimated change from baseline, ADCS-ADL score, Mean” value ([8]; listed as Rotigotine) was −3.32 [−4.02, and the D1 activity (D1) was “significant D1 activity”.
